Laboratory results as given in patent US20260248780A1, “PHARMACEUTICAL COMPOSITIONS” (Birdie Biopharmaceuticals, Inc., priority 2017, published 2026).
Values after ≈ are worked out from the molar mass of the structure shown.

Experiments:
Assay type in all cases: physicochemical
[1] = Hygroscopicity: DVS isotherm at 25° C.; conditions: for hygroscopicity: DVS at 25° C.; for water uptake up to 80% RH: 25° C./80% RH
Experimental: DVS isotherm plot was collected at 25° C. to investigate the solid form stability as a function of humidity. […] For the possible hydrate/solvate di-HCl salt Type A, solids were equilibrated at ambient humidity (~30% RH) before testing. DVS was measured via a SMS (Surface Measurement Systems) DVS Intrinsic. The relative humidity at 25° C. were calibrated against deliquescence point of LiCl, Mg(NO3)2 and KCl. DVS isotherm plot was collected at 25° C. to investigate the solid form stability as a function of humidity for anhydrate Type A (807919-05-A). Solids were pre-dried at 0% RH to remove the unbounded solvent or water before started. […] DVS was measured via a SMS (Surface Measurement Systems) DVS Intrinsic. The relative humidity at 25° C. were calibrated against deliquescence point of LiCl, Mg(NO3)2 and KCl.

[2] = Kinetic solubility in water and bio-relevant media (SGF, FaSSIF, FeSSIF) at RT; conditions: for FC: Solid form change / S: Solubility / pH: Final pH of supernatant: RT
Experimental: (§1) After being centrifuged and separated using 0.45 μm Nylon filter, filtrates were collected for HPLC and pH test, and wet cakes for XRPD characterization. If clear solutions were obtained after 24 hours, accurate concentration and purity were measured for the solutions.

[3] = HPLC purity of clear samples after kinetic solubility test; conditions: clear sample after kinetic solubility test, FeSSIF
Experimental: as §1

CCOCc1nc2c(N)nc3ccccc3c2n1CC(C)(C)O [Freebase Type A, 1-[4-amino-2-(ethoxymethyl)imidazo-[4,5-c]-quinolin-1-yl]-2-methylpropan-2-ol]
hygroscopicity ([1]; listed as Type A): non-hygroscopic
hygroscopicity ([1]; listed as freebase Type A): non-hygroscopic
Water Uptake at 25° C./80% RH ([1]; DVS, 25° C., up to 80% RH): 0.1%
water uptake up to 80% RH ([1]; DVS, listed as Type A): 0.1%
water uptake up to 80% RH ([1]; DVS, listed as freebase Type A): 0.1%
Form Change Post DVS Test ([1]; XRPD after DVS): No
Form Change Post DVS Test ([1]; XRPD pre and post DVS, listed as Type A): no form change
Form Change Post DVS Test ([1]; XRPD pre and post DVS, listed as freebase Type A): no form change
solubility kinetic ([2]; FaSSIF): ~2900 µg/mL (≈ 9.22 mM)
FC: Solid form change ([2]; FaSSIF, 1 hr): No
S: Solubility ([2]; FaSSIF, 1 hr): 2700 µg/mL
pH: Final pH of supernatant ([2]; FaSSIF, 1 hr): 7.0
FC: Solid form change ([2]; FaSSIF, 2 hrs): No
S: Solubility ([2]; FaSSIF, 2 hrs): 2800 µg/mL
pH: Final pH of supernatant ([2]; FaSSIF, 2 hrs): 7.0
FC: Solid form change ([2]; FaSSIF, 4 hrs): No
S: Solubility ([2]; FaSSIF, 4 hrs): 2800 µg/mL
pH: Final pH of supernatant ([2]; FaSSIF, 4 hrs): 7.1
FC: Solid form change ([2]; FaSSIF, 24 hrs): No
S: Solubility ([2]; FaSSIF, 24 hrs): 2900 µg/mL
pH: Final pH of supernatant ([2]; FaSSIF, 24 hrs): 7.0
pH: Final pH of supernatant ([2]; FeSSIF, 24 hrs): 5.4
solubility kinetic ([2]; SGF and FeSSIF, simulated gastric fluid, SGF/FeSSIF): > 4900 µg/mL
S: Solubility ([2]; SGF, 1 hr): 2700 µg/mL
pH: Final pH of supernatant ([2]; SGF, 1 hr): 3.6
S: Solubility ([2]; SGF, 2 hrs): 3500 µg/mL
pH: Final pH of supernatant ([2]; SGF, 2 hrs): 5.0
S: Solubility ([2]; SGF, 4 hrs): 5000 µg/mL
pH: Final pH of supernatant ([2]; SGF, 4 hrs): 5.0
S: Solubility ([2]; SGF, 24 hrs): 5000 µg/mL
pH: Final pH of supernatant ([2]; SGF, 24 hrs): 4.9
FC: Solid form change ([2]; Water, 1 hr): No
S: Solubility ([2]; Water, 1 hr): 500 µg/mL
pH: Final pH of supernatant ([2]; Water, 1 hr): 8.4
FC: Solid form change ([2]; Water, 2 hrs): No
S: Solubility ([2]; Water, 2 hrs): 500 µg/mL
pH: Final pH of supernatant ([2]; Water, 2 hrs): 8.6
FC: Solid form change ([2]; Water, 4 hrs): No
S: Solubility ([2]; Water, 4 hrs): 500 µg/mL
pH: Final pH of supernatant ([2]; Water, 4 hrs): 8.1
FC: Solid form change ([2]; Water, 24 hrs): No
S: Solubility ([2]; Water, 24 hrs): 500 µg/mL
pH: Final pH of supernatant ([2]; Water, 24 hrs): 8.1
Kinetic Solubility at RT ([2]; water): ~0.5 (water) mg/mL
HPLC Purity % of Initial [3]: 99.9%
HPLC Purity Area % [3]: 99.25 Area %
